# Experimental data reported in PubChem BioAssay AID463229 (Broad Institute, 2010).
# System: INS-1E rat beta cells, no cytokines, CellTiter-Glo ATP, 48 h
# Test: ATP level change in INS-1E without cytokines, dose response, counter-screen for beta-cell apoptosis protection project, INS-1E rat cells, ATP luminescence, cherry pick (AID 463229)
row,Compound,AC50 [µM]
1,NC(N)=N/N=C/c1ccc(OCc2ccccc2)cc1,14.7
2,Cc1ccc(NC2=CC(=O)C(=O)c3ccccc32)c(C)c1,4.39
3,Cc1cc(N2CCN(S(=O)(=O)c3ccc(Cl)cc3)CC2)c2ccccc2n1,7.4
4,CC(=O)N1CCc2cc(S(=O)(=O)NCCC3=CCCCC3)ccc21,7.63
5,O=[N+]([O-])c1cc(Cl)cc(/C=N\Nc2ccccn2)c1O,2.55
6,CCCCCCCNC1=CC(=O)CC(c2ccccc2)C1 (configuration not stated),9.84
7,CCN1c2ccccc2NC2N=C(OC)C(c3ccccc3)C21 (configuration not stated),13.1
8,c1ccc(-[n+]2nc(Nc3cccc4ccccc34)sc2-c2c3ccccc3cc3ccccc23)cc1,3.86
9,O=C1C(Cl)=C(NCc2cccnc2)C(=O)c2ccccc21,14.3
10,O=C1C(Cl)=C(NCCN2CCCCC2)C(=O)c2ccccc21,14.1
11,Cc1ccc(C(C)C)c(OCc2nn(CC(=O)c3ccc(OC(F)F)cc3)c3[n+]2CCCCC3)c1,4.43
12,COc1ccc2nc(C)cc(N/N=C/c3ccc(F)cc3)c2c1,7.11
13,CCN(CC)c1ccc(/C=N/NC(=O)c2cccc(S(=O)(=O)Nc3ccccc3OC)c2)c(O)c1,1.62
14,C=C1C(=O)O[C@@H]2C[C@@H](C)[C@@H]3C=CC(=O)[C@@]3(C)[C@@H](O)[C@H]12,2.02
15,Cc1ccc(N=Cc2c(C)[nH]n(-c3nc4ccccc4[nH]3)c2=O)cc1,1.85
16,O=C(NCc1cccnc1)/C(=C\c1ccc(-c2ccc(Cl)c(Cl)c2)o1)S(=O)(=O)c1ccccc1,4.62
17,Cc1ccccc1/C=N/Nc1ccnc2cc(Cl)ccc12,6.91
18,O=C(N/N=C/c1cc(Br)c(O)c(Br)c1O)c1ccc2c(c1)OCCO2,8.27
19,O=C(NN=C(c1ccccc1)c1ccccn1)c1ccccc1,2.55
20,O=C(Nc1cccnc1)c1cccnc1,10.9
21,O=C1C(C2=NC(c3ccccn3)C3C(=O)N(c4ccc(OC(F)(F)F)cc4)C(=O)C23)=C(O)c2ccccc21 (configuration not stated),5.94
22,Cc1cccc(/C=N\NC(=O)c2ccc(Cl)cc2)c1O,4.8

row,Compound,AC50 [µM]
1,CCc1ccc(C2CC(c3cccc(Cl)c3)n3nc(N)nc3N2)cc1 (configuration not stated),14.7
2,Cc1cc(C)n(Cc2ccc(NC(=O)c3ccc(COc4ccccc4Br)cc3)cc2)n1,8.33
3,Cc1cccc(Nc2nc(N)c([N+](=O)[O-])c(N3CC(C)CC(C)C3)n2)c1 (configuration not stated),14.8
4,C/C(=N\N1C(=O)c2ccccc2NC1c1ccco1)c1ccccc1O (configuration not stated),12.5
5,O=S(=O)(NCc1ccncc1)c1ccc(Br)s1,4.25
6,Cn1nc(-c2ccccn2)nc2c(=O)n(C)c(=O)nc1-2,3.1
7,CC(=O)OC1COC(OC2C(O)C(C)OC(OC3C(OC4CCC5(C)C(CCC6(C)C5CC=C5C7CC(C)(C)CCC7(C(=O)O)CCC56C)C4(C)CO)OCC(O)C3O)C2O)C(O)C1OC(C)=O (configuration not stated),7.09
8,C=CC[n+]1c(/C=C2\C=Cc3cc(C)ccc3N2CC)ccc2ccccc21,< 0.195
9,CC(=O)c1c(C)[nH]c(C(=O)OCc2cccc(Cl)c2)c1C,25.4
10,O=[N+]([O-])c1ccc(-c2nc(C(Cl)Cl)c3ccccc3n2)cc1,1.66
11,CCOC(=O)c1cnc(-n2nc(C)cc2C)nc1Nc1ccc(O)cc1,1.41
12,NCCCn1c(C(=O)c2cc(Cl)c(N)c(Cl)c2)c2ccc([N+](=O)[O-])cc2[n+]1[O-],5.34
13,Cc1cc(C)c(S(=O)(=O)/N=C2\C=C(Nc3ccc(C(=O)O)cc3)C(=O)c3ccccc32)c(C)c1,5.39
14,CCOc1ccc(S(=O)(=O)N2CCCCC2)cc1NC(=O)CN1CCCC1c1cccs1 (configuration not stated),5.24
15,Cc1ccc(-c2ccc(/C=C3\C(=O)ON=C3c3ccccc3)o2)c([N+](=O)[O-])c1,6.77
16,COc1ccccc1N1CCN(c2ncc(C(=O)N3CCN(c4cccc(Cl)c4)CC3)c3ccccc23)CC1,4.69
17,COc1ccc(/C=N/Nc2cc(C)nc3ccc(OC)cc23)c(OC)c1,13.5
18,Cc1ccccc1OCCCCn1cnc2ccccc21,7.47
19,CC(C)(C)CN1CCC(Oc2cccc(C(=O)NCCCOc3cccnc3)c2)CC1,2.13
20,CCOc1cc(CNCCc2ccc(S(N)(=O)=O)cc2)ccc1OCc1ccc(Cl)cc1,7.84
21,Fc1ccccc1N=C1NN=C(c2ccccc2)CS1,4.95
22,Cc1ccc(Nc2c(-c3ccccn3)nc3cccc(C)n23)cc1,6.47

row,Compound,AC50 [µM]
1,O=[N+]([O-])c1cc(CN2CCN(c3ccccc3)CC2)c(O)c2ncccc12,3.1
2,O=C(NCc1cccnc1)c1ccc(NC(=O)c2cccc([N+](=O)[O-])c2)cc1,0.205
3,Cc1nc2cc(-c3ccccc3)sc2c(=O)n1N,3.6
4,COc1cc(SC)ccc1C(=O)Nc1nc2ccccc2[nH]1,1.21
5,CN(C)CC(C(=O)c1ccccc1)c1ccccc1 (configuration not stated),11.8
6,CC(CCCC(C)(C)O)NC(=O)c1cc(COc2ccc3ncccc3c2)on1 (configuration not stated),8.48
7,Cn1c2c(c(=O)n(C)c1=O)C(C(F)(F)F)(C(F)(F)F)N=C(c1ccc(Cl)cc1)N2,0.56
8,CCCCCc1cc(=O)oc2c(C(CCN3CCCCC3)c3ccc4c(c3)OCO4)c(OC)cc(OC)c12 (configuration not stated),7.89
9,Cn1ncc2c(O/N=C(\N)c3ccc(C(C)(C)C)cc3)ncnc21,6.59
10,O=C(CSc1nnc(Cn2nnc3ccccc32)o1)N(Cc1ccc(Cl)cc1)c1ccccc1,6.17
11,Oc1ccc(Br)cc1-c1cc(-c2ccc(Cl)cc2)n[nH]1,11.1
12,CCCCSc1nc2sc3c(c2c(=O)n1-c1ccc(C)cc1)CCN(C)C3,22.4
13,COc1ccc(C2=Nn3c([n+](C)c4ccccc43)SC2)cc1,1.54
14,CCCCC(=O)NC(c1ccc(Cl)cc1)c1ccc2cccnc2c1O (configuration not stated),1.35
15,CN(C)S(=O)(=O)c1cccc(CSCc2cccc(S(=O)(=O)N(C)C)c2)c1,7.78
16,C=C(C)C(=O)OCC(O)COc1ccc(C(C)(C)c2ccc(OCC(O)COC(=O)C(=C)C)cc2)cc1 (configuration not stated),19.2
17,COC(=O)C1=C(C)N(Cc2ccccc2)C(=NCc2cccc(Cl)c2)N[C@H]1c1cccc(F)c1,6.75
18,COc1ccc(CCNC(=O)c2cc3c(=O)n4cccc(C)c4nc3n(Cc3ccco3)c2=N)cc1OC,9.18
19,CC1=NN(c2nc3ccccc3[nH]2)C(=O)C1Cc1ccccc1 (configuration not stated),2.1
20,CN(C)c1cc[n+](Cc2c(Cl)cccc2Cl)cc1,6.3
21,O=C(N/N=C/c1ccc([N+](=O)[O-])o1)c1cc2ccccc2o1,6.22
22,COc1ccccc1CNc1ncnc2sccc12,11.9

row,Compound,AC50 [µM]
1,CCN(CC)CCNc1ncnc2c1sc1nc(N3CCOCC3)c3c(c12)CC(C)(C)SC3,14.2
2,CCN(CC)c1ccc(/C=N/NC(=O)c2ccc3nc[nH]c3c2)c(O)c1,2.7
3,O=C(Nc1ccc(Cl)c(Cl)c1)Nc1nnc(CC2=CCCCC2)s1,5.75
4,N=c1c2c(n(Cc3ccc(Cl)cc3Cl)c3c1CCC3)CCCC2,3.99
5,N#CC(C#N)=NNc1ccc(-n2ccc(C(F)(F)F)n2)cc1,7.8
6,COc1cccc(/C=N/NC(=O)c2c(C)nc3ccc(Br)cn23)c1O,3.16
7,Nc1c(C(=O)Nc2ccc3c(c2)OCCO3)nnn1Cc1ccccc1Cl,5.53
8,CCC(Sc1nc(C)cc(C)n1)C(=O)NC1=NN=C(c2ccc(C)cc2)CS1 (configuration not stated),2.14
9,N#CC(C#N)=C1C=CC=CN1/C(=C\c1ccco1)C(=O)c1ccc(Br)cc1,8.57
10,CCN(CC)c1ccc(C(=O)N/N=C/c2ccccc2OC(F)F)cc1,15.6
11,CCCCCCn1ccc(=N)cc1,3.12
12,O=C(c1cc(-c2cccc(Cl)c2)nc2ccccc12)N1CCN(c2ccccn2)CC1,12.4
13,C[N+]1=C(/C=C/Nc2ccccc2Cl)C(C)(C)c2ccccc21,12.2
14,C#CCOCCOCCOCCNc1nc(N2CCN(C(=O)CCCCCCCCCCNC(=O)[C@H](CCCCN)n3cc(CCO)nn3)CC2)nc(N2CCN(C(=O)CCCCCCCCCCNC(=O)[C@H](CCCCN)n3cc(C[C@@H](C)CC)nn3)CC2)n1,10.6
15,Cc1ccc2c(c1)nnn2C1CCN(S(=O)(=O)c2ccc(C(=O)N3C(C)CCCC3C)cc2)CC1 (configuration not stated),7.75
16,COc1cccc(/C=N/Nc2snc(SC)c2C#N)c1O,5.12
17,Nc1cc2c3c(cccc3c1)C(=O)N(CCN1CCCC1)C2=O,12.7
18,COC(=O)C1=C(c2ccc(OCc3ccccc3)cc2)C[C@@H]2CC[C@H]1N2C(=O)NC1CCN(Cc2ccccc2)CC1,7.55
19,O=Nc1c(O)c2ccccc2c2ccccc12,7.61
20,CC(C)(C)c1ccc(/C=C(\c2nc3ccccc3[nH]2)S(=O)(=O)c2ccccc2)cc1,7.37
21,Cc1c(C(=O)N/N=C/c2c(O)ccc3ccccc23)nnn1-c1nonc1N,2.18
22,O=[N+]([O-])c1ccc(S(=O)(=O)c2ccccc2)nc1,10.6

row,Compound,AC50 [µM]
1,CCOc1ccc(C(=O)N/N=C(\c2ccccc2)c2ccccn2)cc1,4.89
2,O=C1C(=O)c2c(C(=O)c3ccccc3)coc2-c2ccccc21,7.21
3,Cc1cc[n+](C(C)C(=O)c2ccc(-c3ccccc3)cc2)cc1 (configuration not stated),3.81
4,Cc1ccc(C(=O)Nc2cccc3[nH]c(C(F)(F)F)nc23)cc1,13.3
5,CCCC(=O)NC(c1ccc2c(c1)OCO2)c1cc(Cl)c2cccnc2c1O (configuration not stated),4.39
6,C=C1C(=O)O[C@@H]2C[C@@H](C)[C@@H]3C=CC(=O)[C@@]3(C)[C@@H](OC(=O)CC(=O)O[C@H]3[C@@H]4C(=C)C(=O)O[C@@H]4C[C@@H](C)[C@@H]4C=CC(=O)[C@]43C)[C@H]12,0.386
7,CCn1cc(C(=O)O)c(=O)c2cc(F)c(N/N=C/c3ccccc3[N+](=O)[O-])cc21,7.62
8,COc1cc(OC)c(NC2=CC(=O)C(=O)c3ccccc32)cc1Cl,8.07
9,Cc1cc2c(NCCc3ccccc3)ncnc2s1,2.95
10,CCN1/C(=C/C(C)=C/c2sc3ccccc3[n+]2CC)Sc2ccccc21,< 0.195
11,COc1ccc(OC)c(NC(=O)CSc2ncnc3c2cnn3-c2ccccc2Cl)c1,2.31
12,Cc1sc2ncnc(NCC(O)c3ccc([N+](=O)[O-])cc3)c2c1C (configuration not stated),5.1
13,Brc1ccc(N/N=C(/N=Nc2nn[nH]n2)c2ccccc2)cc1,3.51
14,CCCOc1ccc(Br)cc1CSC(=N)N,8.01
15,CCCOCc1ccc(O)c2ncccc12,7.79
16,N#CC(c1ccc(Cl)cc1)c1ccc2c(C(F)(F)F)cc(C(F)(F)F)nc2n1 (configuration not stated),0.898
17,COc1ccc(Nc2nc(N3CCCC3)c3ccccc3n2)cc1,9.85
18,C1=C(CCNc2ncnc3c2[nH]c2ccccc23)CCCC1,0.489
19,CCOC(=O)c1c(C)[nH]c(C(=O)N/N=C\c2ccccc2O)c1C,6.52
